Blank lines part the entries; values can stand above or below the molecule they belong to.
Legend:
[1] = target: T1, Equilibrative nucleoside transporter 1 (Homo sapiens, UniProt Q99808); experiment: Inhibition of human ENT1 transfected in nucleoside transporter-deficient pig PK-15 cells assessed as inhibition of [3H]-uridine uptake by liquid scintillation counter analysis; type: cell-based
T1 sequence (Q99808 whole entry): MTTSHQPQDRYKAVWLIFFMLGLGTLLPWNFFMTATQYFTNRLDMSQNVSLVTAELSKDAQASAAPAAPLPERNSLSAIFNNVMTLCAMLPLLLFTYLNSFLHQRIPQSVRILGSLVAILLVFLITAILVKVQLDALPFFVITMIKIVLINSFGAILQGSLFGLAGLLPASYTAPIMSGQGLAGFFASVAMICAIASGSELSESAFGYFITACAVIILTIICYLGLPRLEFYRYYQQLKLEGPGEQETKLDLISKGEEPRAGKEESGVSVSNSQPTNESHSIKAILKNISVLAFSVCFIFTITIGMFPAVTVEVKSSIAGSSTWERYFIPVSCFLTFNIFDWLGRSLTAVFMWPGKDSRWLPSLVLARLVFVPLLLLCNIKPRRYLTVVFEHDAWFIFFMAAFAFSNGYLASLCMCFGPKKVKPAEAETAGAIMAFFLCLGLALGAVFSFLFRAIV

[2] = target: T1, Equilibrative nucleoside transporter 1; experiment: Inhibition of human ENT1 transfected in nucleoside transporter-deficient pig PK-15 cells assessed as inhibition of [3H]-adenosine uptake by liquid scintillation counter analysis; type: cell-based
[3] = target: T2, Equilibrative nucleoside transporter 2 (Homo sapiens, UniProt Q14542); experiment: Inhibition of human ENT2 transfected in nucleoside transporter-deficient pig PK-15 cells assessed as inhibition of [3H]-adenosine uptake by liquid scintillation counter analysis; type: cell-based
T2 sequence (Q14542 whole entry): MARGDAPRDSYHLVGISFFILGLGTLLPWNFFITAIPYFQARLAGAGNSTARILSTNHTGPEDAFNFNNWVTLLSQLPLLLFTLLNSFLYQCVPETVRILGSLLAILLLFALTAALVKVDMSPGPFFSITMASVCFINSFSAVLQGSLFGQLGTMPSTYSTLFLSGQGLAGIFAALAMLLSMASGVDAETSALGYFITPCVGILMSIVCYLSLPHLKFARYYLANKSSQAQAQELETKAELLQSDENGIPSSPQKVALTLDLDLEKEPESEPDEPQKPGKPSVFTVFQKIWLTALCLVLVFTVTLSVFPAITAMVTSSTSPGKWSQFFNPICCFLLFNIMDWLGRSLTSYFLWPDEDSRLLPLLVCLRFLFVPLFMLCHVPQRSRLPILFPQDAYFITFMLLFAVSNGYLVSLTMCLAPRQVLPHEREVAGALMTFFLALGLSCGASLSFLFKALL

[4] = target: T2, Equilibrative nucleoside transporter 2; experiment: Inhibition of human ENT2 transfected in nucleoside transporter-deficient pig PK-15 cells assessed as inhibition of [3H]-uridine uptake by liquid scintillation counter analysis; type: cell-based
[5] = target: 5-hydroxytryptamine receptor 1A (Homo sapiens, UniProt P08908); experiment: Displacement of […] from human 5-HT1AR expressed in HEK293 cells by radioligand binding assay; type: cell-based
Chain of 5-hydroxytryptamine receptor 1A (P08908 whole entry): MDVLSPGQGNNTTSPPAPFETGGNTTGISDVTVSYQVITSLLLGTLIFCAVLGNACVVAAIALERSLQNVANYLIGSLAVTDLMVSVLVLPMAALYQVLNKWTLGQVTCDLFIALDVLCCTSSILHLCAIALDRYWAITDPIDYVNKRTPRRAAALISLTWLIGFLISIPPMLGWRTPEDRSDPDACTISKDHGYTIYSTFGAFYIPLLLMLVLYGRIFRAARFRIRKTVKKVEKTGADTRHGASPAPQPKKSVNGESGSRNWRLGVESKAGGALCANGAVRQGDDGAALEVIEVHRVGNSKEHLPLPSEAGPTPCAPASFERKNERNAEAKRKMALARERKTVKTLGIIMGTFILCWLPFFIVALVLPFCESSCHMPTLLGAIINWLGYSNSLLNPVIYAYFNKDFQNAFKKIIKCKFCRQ

[6] = target: 5-hydroxytryptamine receptor 2A (Homo sapiens, UniProt P28223); experiment: Displacement of […] from human 5-HT2AR expressed in HEK293 cells by radioligand binding assay; type: cell-based
Chain of 5-hydroxytryptamine receptor 2A (P28223 whole entry): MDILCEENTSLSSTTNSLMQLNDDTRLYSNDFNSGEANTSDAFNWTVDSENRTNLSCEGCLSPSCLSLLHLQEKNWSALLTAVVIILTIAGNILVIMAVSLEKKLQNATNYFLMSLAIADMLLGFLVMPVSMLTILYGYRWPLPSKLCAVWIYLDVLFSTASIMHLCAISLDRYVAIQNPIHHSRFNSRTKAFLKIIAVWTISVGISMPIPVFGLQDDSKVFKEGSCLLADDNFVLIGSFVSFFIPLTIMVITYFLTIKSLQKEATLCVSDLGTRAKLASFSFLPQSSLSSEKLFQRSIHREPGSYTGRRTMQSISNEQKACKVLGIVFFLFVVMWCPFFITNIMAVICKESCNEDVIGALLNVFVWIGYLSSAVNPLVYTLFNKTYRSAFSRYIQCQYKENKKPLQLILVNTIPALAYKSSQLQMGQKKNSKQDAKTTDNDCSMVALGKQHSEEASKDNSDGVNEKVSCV

D(2) dopamine receptor = D(2) dopamine receptor (Homo sapiens, UniProt P14416); experiment: Displacement of [3H]-Raclopride from human dopamine D2 receptor expressed in HEK293 cells by radioligand binding assay; type: cell-based
Chain of D(2) dopamine receptor (P14416 whole entry): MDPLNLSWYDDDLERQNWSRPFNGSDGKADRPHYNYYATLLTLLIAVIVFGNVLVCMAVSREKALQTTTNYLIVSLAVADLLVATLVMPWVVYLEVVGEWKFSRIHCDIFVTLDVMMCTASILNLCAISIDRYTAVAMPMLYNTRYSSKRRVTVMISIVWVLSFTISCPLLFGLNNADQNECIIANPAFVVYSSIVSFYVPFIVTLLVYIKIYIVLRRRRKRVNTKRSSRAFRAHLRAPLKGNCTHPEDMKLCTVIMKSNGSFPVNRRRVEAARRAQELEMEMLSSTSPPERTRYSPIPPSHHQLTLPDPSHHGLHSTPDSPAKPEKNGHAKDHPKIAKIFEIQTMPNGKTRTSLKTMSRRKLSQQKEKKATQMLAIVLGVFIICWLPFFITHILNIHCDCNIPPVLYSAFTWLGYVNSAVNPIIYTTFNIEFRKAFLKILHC

[7] = target: 5-hydroxytryptamine receptor 7 (Homo sapiens, UniProt P34969); experiment: Displacement of [3H]-5Carboxyamidotryptamine from human 5-HT7R expressed in HEK293 cells by radioligand binding assay; type: cell-based
Chain of 5-hydroxytryptamine receptor 7 (P34969 whole entry): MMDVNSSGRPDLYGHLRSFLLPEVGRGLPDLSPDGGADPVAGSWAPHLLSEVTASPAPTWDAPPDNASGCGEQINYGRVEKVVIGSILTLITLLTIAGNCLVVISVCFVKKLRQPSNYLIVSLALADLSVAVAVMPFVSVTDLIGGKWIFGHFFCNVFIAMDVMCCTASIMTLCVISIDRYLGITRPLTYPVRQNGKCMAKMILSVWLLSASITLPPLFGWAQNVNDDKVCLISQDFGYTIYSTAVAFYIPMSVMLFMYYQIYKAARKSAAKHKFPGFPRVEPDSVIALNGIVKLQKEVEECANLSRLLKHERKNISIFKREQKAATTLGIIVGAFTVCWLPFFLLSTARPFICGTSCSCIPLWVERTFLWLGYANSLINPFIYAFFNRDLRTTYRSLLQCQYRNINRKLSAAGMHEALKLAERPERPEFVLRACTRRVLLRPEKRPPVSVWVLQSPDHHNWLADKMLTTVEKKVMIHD

Jurkat [8] = experiment: Cytotoxicity against human Jurkat cells assessed as cell growth inhibition; type: functional, cell-based
[9] = Cytotoxicity against human IM-9 cells assessed as cell growth inhibition; type: toxicity, cell-based
K562 = experiment: cells; details: Homo sapiens
Description: Cytotoxicity against human K562 cells assessed as cell growth inhibition

DU-145 = experiment: Cytotoxicity against human DU-145 cells assessed as cell growth inhibition; type: functional, cell-based
Daudi = experiment: Cytotoxicity against human Daudi cells assessed as cell growth inhibition; type: functional, cell-based
SK-OV-3 [10] = experiment: Cytotoxicity against human SK-OV-3 cells assessed as cell growth inhibition; type: functional, cell-based
HL-60 = experiment: Cytotoxicity against human HL-60 cells assessed as cell growth inhibition; type: functional, cell-based
[11] = Cytotoxicity against mouse LL2 cells assessed as cell growth inhibition; type: functional, cell-based; details: Lewis lung carcinoma
MCF7 = experiment: Cytotoxicity against human MCF7 cells assessed as cell growth inhibition; type: functional, cell-based
[12] = Cytotoxicity against human MHOC-59 cell assessed as cell growth inhibition; type: functional, cell-based
HEC-1-A = experiment: Cytotoxicity against human HEC-1-A cells assessed as cell growth inhibition; type: functional, cell-based
AN3-CA = experiment: Cytotoxicity against human AN3-CA cells assessed as cell growth inhibition; type: functional, cell-based
[13] = test system: Human immunodeficiency virus 1; experiment: Antiviral activity against NNRTI resistant HIV1 harboring Leu100IIe mutant infected in human MT4 cells assessed as reduction in virus-induced cytopathic effect measured after 5 days by MTT assay; type: functional, organism-based; details: Human immunodeficiency virus 1, MT4, 120 h
[14] = test system: Human immunodeficiency virus 1; experiment: Antiviral activity against NNRTI resistant HIV1 harboring Gly190Ala mutant infected in human MT4 cells assessed as reduction in virus-induced cytopathic effect measured after 5 days by MTT assay; type: functional, organism-based; details: Human immunodeficiency virus 1, MT4, 120 h
[15] = test system: Human immunodeficiency virus 1; experiment: Antiviral activity against wild type HIV1 IIIB assessed as viral growth inhibition measured after 5 days by MTT assay; type: functional, organism-based; details: Human immunodeficiency virus 1, IIIB, 120 h
[16] = test system: Human immunodeficiency virus 1; experiment: Antiviral activity against NNRTI resistant HIV1 harboring Tyr181Cys mutant infected in human MT4 cells assessed as reduction in virus-induced cytopathic effect measured after 5 days by MTT assay; type: functional, organism-based; details: Human immunodeficiency virus 1, MT4, 120 h
[17] = test system: Human immunodeficiency virus 1; experiment: Antiviral activity against NNRTI resistant HIV1 LAI infected in human MT4 cells assessed as reduction in virus-induced cytopathic effect measured after 5 days by MTT assay; type: functional, organism-based; details: Human immunodeficiency virus 1, LAI, MT4, 120 h
[18] = test system: Human immunodeficiency virus 1; experiment: Antiviral activity against NNRTI resistant HIV1 harboring Lys103Asn mutant infected in human MT4 cells assessed as reduction in virus-induced cytopathic effect measured after 5 days by MTT assay; type: functional, organism-based; details: Human immunodeficiency virus 1, MT4, 120 h
[19] = test system: Human immunodeficiency virus 1; experiment: Antiviral activity against NNRTI resistant HIV1 harboring Val106Ala mutant infected in human MT4 cells assessed as reduction in virus-induced cytopathic effect measured after 5 days by MTT assay; type: functional, organism-based; details: Human immunodeficiency virus 1, MT4, 120 h
HeLa = experiment: Cytotoxicity against human HeLa cells assessed as cell growth inhibition incubated for 96 hrs by WST-8 assay; type: functional, cell-based
[20] = target: 1-acyl-sn-glycerol-3-phosphate acyltransferase beta (Homo sapiens, UniProt O15120); experiment: Inhibition of LPAAT-beta (unknown origin) expressed in Xenopus laevis oocytes incubated for 3 mins; type: cell-based, Oocyte
Chain of 1-acyl-sn-glycerol-3-phosphate acyltransferase beta (O15120 whole entry): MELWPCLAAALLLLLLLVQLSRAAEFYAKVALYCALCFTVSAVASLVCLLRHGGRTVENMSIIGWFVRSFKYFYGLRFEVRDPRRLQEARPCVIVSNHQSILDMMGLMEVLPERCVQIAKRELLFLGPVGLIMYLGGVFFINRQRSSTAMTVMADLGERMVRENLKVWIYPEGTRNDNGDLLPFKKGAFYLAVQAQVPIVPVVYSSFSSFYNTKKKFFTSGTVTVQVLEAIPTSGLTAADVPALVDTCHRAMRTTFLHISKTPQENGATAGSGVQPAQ

HEK293 = experiment: Cytotoxicity against HEK293 cells assessed as cell growth inhibition incubated for 96 hrs by WST-8 assay; type: functional, cell-based; details: Homo sapiens, HEK293, 96 h
SK-OV-3 [21] = experiment: Cytotoxicity against human SK-OV-3 cells assessed as cell growth inhibition incubated for 96 hrs by WST-8 assay; type: functional, cell-based; details: SK-OV-3, 96 h
[22] = Cytotoxicity against human HCO cell assessed as cell growth inhibition incubated for 96 hrs by WST-8 assay; type: functional, cell-based
MEF = experiment: Cytotoxicity against mouse MEF cells assessed as cell growth inhibition incubated for 96 hrs by WST-8 assay; type: functional, cell-based
Jurkat [23] = experiment: Cytotoxicity against human Jurkat cells assessed as cell growth inhibition measured after 72 hrs by MTS assay; type: functional, cell-based
[24] = test system: Human immunodeficiency virus 1; experiment: Antiviral activity against NNRTI resistant HIV1 harboring Tyr188Leu mutant infected in human MT4 cells assessed as reduction in virus-induced cytopathic effect measured after 5 days by MTT assay; type: functional, organism-based; details: Human immunodeficiency virus 1, MT4, 120 h

- IC50 [1]: 18000 nM
- IC50 [2]: 19400 nM
- IC50 [3]: 4360 nM
- IC50 [4]: 1690 nM
SMILES: Nc1nc(CN2CCN(c3ccccc3F)CC2)nc(Nc2cccc3ccccc23)n1

- Ki [5]: 2290 nM
- Ki [6]: 39 nM
- Ki (D(2) dopamine receptor): 300 nM
- Ki [7]: 610 nM
SMILES: CN1CCN(c2nc(N)nc(C(C)(C)Sc3ccc4ccccc4c3)n2)CC1

- Ki [7]: 5710 nM
SMILES: CCC(Oc1cc(Cl)ccc1Cl)c1nc(N)nc(N2CCN(C)CC2)n1 (configuration not stated)

- IC50 [1]: 590 nM
- IC50 [4]: 77100 nM
SMILES: COc1ccc(Nc2nc(N)nc(CN3CCN(c4ccccc4F)CC3)n2)cc1

- IC50 (K562): < 12.5 nM
SMILES: CCOc1ccc(Cl)cc1-c1nc(N)nc(Nc2ccc(CO)cc2)n1
- IC50 (Jurkat [8]): < 12.5 nM
- IC50 [9]: < 12.5 nM
- IC50 (DU-145): 25 nM
- IC50 (Daudi): 13 nM
- IC50 (SK-OV-3 [10]): 29 nM
- IC50 (HL-60): < 12.5 nM
- IC50 [11]: 25 nM
- IC50 (MCF7): 40 nM
- IC50 [12]: 25 nM
- IC50 (HEC-1-A): 41 nM
- IC50 (AN3-CA): 32 nM

SMILES: N#Cc1ccc(Nc2nc(N)nc(Cc3c(Cl)cccc3Cl)n2)cc1
- IC50 [13]: 293 nM
- IC50 [14]: 1 nM
- IC50 [15]: 2 nM
- IC50 [16]: 200 nM
- IC50 [17]: 6.3 nM
- IC50 [18]: 40 nM
- IC50 [19]: 26 nM

- IC50 [20]: 8.4 nM
SMILES: CCc1c(-c2nc(N)nc(Nc3ccc(C)cc3)n2)oc2ccccc12
- IC50 (HeLa): 140 nM
- IC50 (HEK293): 51 nM
- IC50 (SK-OV-3 [21]): 179 nM
- IC50 [22]: 102 nM
- IC50 (MEF): 62 nM

SMILES: Nc1nc(-c2ccccc2)nc(N2CCc3ccccc3C2)n1
- IC50 (Jurkat [23]): 1950 nM

SMILES: N#Cc1ccc(Nc2nc(N)nc(Cc3c(Cl)ccc4[nH]ccc34)n2)cc1
- IC50 [13]: 1000 nM
- IC50 [14]: 3 nM
- IC50 [15]: 3 nM
- IC50 [16]: 250 nM
- IC50 [24]: 1000 nM
- IC50 [18]: 63 nM
- IC50 [19]: 63 nM

- IC50 [1]: 2380 nM
- IC50 [4]: 570 nM
SMILES: Cc1cccc(Nc2nc(N)nc(CN3CCN(c4ccc(F)cc4)CC3)n2)c1

- IC50 [20]: 15 nM
SMILES: CCc1ccc(Nc2nc(N)nc(-c3oc4ccccc4c3C)n2)cc1
- IC50 (HeLa): 111 nM
- IC50 (HEK293): 25 nM
- IC50 (SK-OV-3 [21]): 79 nM
- IC50 [22]: 63 nM
- IC50 (MEF): 48 nM

Reference: ChEMBL document CHEMBL5214932, “A closer look at N2,6-substituted 1,3,5-triazine-2,4-diamines: Advances in synthesis and biological activities” (Eur J Med Chem, 2022)
